This passage reports microsomal CLint results from PMC6609541, “Enterohepatic circulation of glucuronide metabolites of drugs in dog” (Pharmacology Research & Perspectives, 2019).

One data set concerns UGT. Nature of the data set: Liver microsomal glucuronidation assay (dog). Type of data set: in vitro ADME. To be noted: dog liver microsomes, pH 7.5, dog, with 2% BSA. Here is the method:
(§1) Intrinsic clearance of the compounds by glucuronidation was conducted in human and dog liver and kidney microsomes. Microsomes (0.5 mg/mL) with or without 2% bovine serum albumin (BSA), 100 mmol/L Tris‐HCl buffer, (pH 7.5), containing 5 mmol/L MgCl2 and 50 µg of alamethicin were mixed and placed on ice for 15 minutes. Canagliflozin or DPTQ (2 µmol/L final concentration) were added, and the mixture was pre‐incubated at 37°C for 3 minutes. A 0‐minute time point was obtained and the reaction initiated by the addition of UDPGA (5 mmol/L final concentration). Aliquots of the incubation (50 µL) were removed at various time points 5, 15, 30, 60 and 120 minutes, and added to the quench solution (1:1 acetonitrile:water). The zero minute time points were also quenched in the same manner. Substrate concentrations were then measured by LC/MS and the intrinsic clearance values (μL/min/mg protein) were calculated using following equation. CLint=-kdep×incubation volume/mg protein
(§2) In which the depletion rate constant (k dep) is the slope determined using linear regression from the log transformed % remaining on the y‐axis vs time on the x‐axis (min^− ^1). […] To determine the unbound intrinsic clearances the microsomal Clint values were divided by the respective microsomal fraction unbound values. The microsomal unbound fraction both with and without 2% BSA was determined as described previously.15

The test system of another data set is UGT (glucuronidation). Nature of the data set: Kidney microsomal glucuronidation assay (human). To be noted: kidney microsomes, pH 7.5, human, with 2% BSA. The data set is classed as in vitro ADME. Here is the method: as §1, §2

Like-named read-outs stand apart in the source and are kept apart here.

Regarding `C[C@H]1c2cccc(CC(C)(C)O)c2C[C@H](CO)N1C(=O)Cc1c(Cl)cccc1Cl` [DPTQ, 2‐(2,6‐dichlorophenyl)‐1‐((1S,3R)‐5‐(2‐hydroxy‐2‐methylpropyl)‐3‐(hydroxymethyl)‐1‐methyl‐3,4‐dihydroisoquinolin‐2(1H)‐yl)ethan‐1‐one], the microsomal CLint at 2 µmol/L in the data set with UGT (Clint divided by microsomal unbound fraction, read-out: Clint,u, Liver microsomes) worked out at 667 µL/min/mg; with UGT (ND = Clint < 1.8, read-out: Clint, Liver microsomes) it was 79.4 µL/min/mg.
For the molecule `Cc1ccc([C@@H]2O[C@H](CO)[C@@H](O)[C@H](O)[C@H]2O)cc1Cc1ccc(-c2ccc(F)cc2)s1` [Canagliflozin], the microsomal CLint at 2 µmol/L with UGT (glucuronidation) (Clint divided by microsomal unbound fraction, read-out: Clint,u, Kidney microsomes) came to 222 µL/min/mg; with UGT (glucuronidation) (ND = Clint < 1.8, read-out: Clint, Kidney microsomes), 4 µL/min/mg.
